Measurements as given in patent US20090048112A1, “Novel Herbicides” (SYNGENTA LIMITED, priority 2005, published 2009).

Columns and labels:
[1] = test system: Monocotyledonous and dicotyledonous test plants; experiment: Example B3: herbicidal action prior to emergence (pre-emergence), 96-cell seed trays, 1000 g/ha; assay type: in vivo; parameters: key: 0 is no damage to plant; 5 is total damage to plant; conditions: 9 days after application; for AGSTE herbicidal effect (visual assessment, scale 0-5): Agrostis tenius (Colonial bentgrass); for AMARE herbicidal effect (visual assessment, scale 0-5): Amaranthus retroflexus (redroot pigweed); for DIGSA herbicidal effect (visual assessment, scale 0-5): Digitaria sanguinalis (hairy finger-grass); for POATR herbicidal effect (visual assessment, scale 0-5): Poa trivialis (rough blue grass); for SETIT herbicidal effect (visual assessment, scale 0-5): Setaria italica (foxtail millet)
Method: Monocotyledonous and dicotyledonous test plants were sown in sterilised standard soil in seed trays each with 96 cells. The seed trays were stored under controlled conditions in a climatic chamber for one day (cultivation at 23° C. during the day and 17° C. at night; 13 hours of light; 50-60% humidity). The chemicals were applied to the soil surface. The application was carried out with an aqueous suspension of the test substances, prepared as a formulation in water with 10% dimethyl sulfoxide (CAS RN 67-68-5), to achieve a field equivalent of 1000 l/ha. The application rate of the test substances was 1000 g/ha. The plants were grown on in the climatic chamber for 9 days (cultivation at 24° C. during the day and 19° C. at night; 13 hours of light; 50-60% humidity). A visual assessment of the herbicidal effect was made at 9 days after application. The following scale was used for assessment: 0, 1, 2, 3, 4 and 5 (where 0 is no damage to plant and 5 is total damage to plant).

[2] = test system: Monocotyledonous and dicotyledonous test plants; experiment: Example B1: herbicidal action prior to emergence (pre-emergence), 500 g/ha; assay type: in vivo; conditions: 13 days after application, 0 = no damage, 100 = plants completely dead; for ALOMY herbicidal effect (visual assessment, percentage scale): Alopecurus myosuroides (slender foxtail); for AMARE herbicidal effect (visual assessment, percentage scale): Amaranthus retroflexus (redroot pigweed); for ECHCG herbicidal effect (visual assessment, percentage scale): Echinochloa crus-galli (barnyard grass); for STEME herbicidal effect (visual assessment, percentage scale): Stellaria media (chickweed)
Method: Monocotyledonous and dicotyledonous test plants were sown in seed trays in standard compost. The trays were watered twice daily or as required. The chemicals were applied by track sprayer at the soil surface. The application was carried out with an aqueous suspension of the test substances, prepared as a formulation of 50% acetone in water with 0.5% Tween 20™ (CAS RN 9005-64-5), to achieve a field equivalent of 1000 l/ha. The application rate of the test substances was 500 g/ha. A visual assessment of the herbicidal effect was made at 13 days after application. The following percentage scale was used for assessment: 0, 5, 10, 20, 30, 40, 50, 60, 70, 80, 90, 95, 100 (where 0 is no damage to plants and 100 is plants are completely dead).

Row | Compound | AGSTE herbicidal effect (visual assessment, scale 0-5) [1] | AMARE herbicidal effect (visual assessment, scale 0-5) [1] | DIGSA herbicidal effect (visual assessment, scale 0-5) [1] | POATR herbicidal effect (visual assessment, scale 0-5) [1] | SETIT herbicidal effect (visual assessment, scale 0-5) [1] | ALOMY herbicidal effect (visual assessment, percentage scale) [2] [%] | AMARE herbicidal effect (visual assessment, percentage scale) [2] [%] | ECHCG herbicidal effect (visual assessment, percentage scale) [2] [%] | STEME herbicidal effect (visual assessment, percentage scale) [2] [%]
1 | Cn1cc(C(F)S(=O)(=O)c2ncc(Cl)s2)c(C(F)(F)F)n1 (stereo not drawn) [Compound No. 1.110, 5-chloro-2-[fluoro-(1-methyl-3-trifluoromethyl-1H-pyrazol-4-yl)-methanesulfonyl]-thiazole] | 0 | 4 | 4 | 4 | 5 |  |  |  | 
2 | Cn1nc(C(F)(F)F)c(CS(=O)(=O)c2ncc(Cl)s2)c1S(C)(=O)=O [Compound No. 1.093] | 5 | 4 | 5 | 5 | 3 |  |  |  | 
3 | CCS(=O)(=O)c1c(CS(=O)(=O)c2ncc(Cl)s2)c(C(F)(F)F)nn1C [Compound No. 1.081] | 5 | 5 | 0 | 0 | 4 |  |  |  | 
4 | Cn1nc(C(F)(F)F)c(CS(=O)(=O)c2ncc(Cl)s2)c1OCC(F)F [Compound 1.117] | 5 | 5 | 5 | 5 | 5 |  |  |  | 
5 | CC[S+]([O-])c1c(C[S+]([O-])c2ncc(Cl)s2)c(C(F)(F)F)nn1C (mixture of isomers) [Compound No. 1.078] | 5 | 4 | 5 | 5 | 5 |  |  |  | 
6 | CC(Oc1c(C[S+]([O-])c2ncc(Cl)s2)c(C(F)(F)F)nn1C)C(F)(F)F (mixture of isomers) [Compound 1.127] | 5 | 5 | 5 | 5 | 5 |  |  |  | 
7 | Cn1nc(C(F)(F)F)c(C[S+]([O-])c2ncc(Cl)s2)c1[S+](C)[O-] (single isomer, unassigned) [Compound No. 1.091] | 5 | 4 | 4 | 0 | 4 |  |  |  | 
8 | Cc1cnc(S(=O)(=O)Cc2c(C(F)(F)F)nn(C)c2OCC(F)(F)F)s1 [Compound 1.075] | 5 | 1 | 0 | 5 | 5 |  |  |  | 
9 | Cn1nc(C(F)(F)F)c(CSc2ncc(Cl)s2)c1OC(CF)CF [Compound No. 1.112] | 5 | 4 | 5 | 0 | 0 |  |  |  | 
10 | Cn1nc(C(F)(F)F)c(CS(=O)(=O)c2nc(Br)cs2)c1OCC(F)(F)F [Compound 1.029] |  |  |  |  |  | 0 | 95 | 0 | 95
11 | Cn1nc(C(F)(F)F)c(CS(=O)(=O)c2ncc(Cl)s2)c1Cl [Compound No. 1.018] |  |  |  |  |  | 60 | 100 | 95 | 0
12 | Cn1nc(OC(F)F)c(C[S+]([O-])c2ncc(Cl)s2)c1C(F)(F)F (racemic) [Compound 1.054] |  |  |  |  |  | 95 | 100 | 95 | 30
13 | Cn1nc(C(F)(F)F)c(C(F)(F)S(=O)(=O)c2ncc(Br)s2)c1OCC(F)(F)F [Compound No. 1.042] |  |  |  |  |  | 60 | 100 | 95 | 90
14 | Cn1nc(C(F)(F)F)c(CS(=O)(=O)c2ncc(Br)s2)c1F [Compound No. 1.012] |  |  |  |  |  | 70 | 90 | 95 | 0
15 | Cn1nc(C(F)(F)F)c(C(F)(Cl)S(=O)(=O)c2ncc(Cl)s2)c1OCC(F)(F)F (racemic) [Compound No. 1.035] |  |  |  |  |  | 0 | 95 | 95 | 20
16 | Cn1nc(C(F)(F)F)c(C(F)S(=O)(=O)c2ncc(Cl)s2)c1Cl (racemic) [Compound No. 1.045] |  |  |  |  |  | 70 | 100 | 100 | 0
17 | Cn1nc(C(F)(F)F)c(C(F)S(=O)(=O)c2ncc(Br)s2)c1Cl (racemic) [Compound No. 1.032] |  |  |  |  |  | 60 | 80 | 80 | 60
18 | Cn1nc(C(F)(F)F)c(C[S+]([O-])c2nccs2)c1OCC(F)(F)F (racemic) [Compound 1.048] |  |  |  |  |  | 80 | 95 | 95 | 80
